Measured values as given in patent US20240299452A1, “Rapamycin and Cell Therapy” (Innovative Cellular Therapeutics Holdings, Ltd., priority 2023, published 2024).

Experiments:
[1] = tested on: CD19 CAR T cells stimulated with nalm6 cells; assay: CAR T cell proliferation after 96 hours with rapamycin; format: cell-based; conditions: nalm6 stimulation, CD4+ and CD8+ subsets
Method: The following study investigated the effects of rapamycin on CAR T cells and tumor cell lines. In the first part of the experiment, cytokine release assays were performed. […] In the same experiments, T cell proliferation was assessed to determine whether rapamycin affects the expansion of CAR T cells. […] In the last part of the study, rapamycin was directly applied to two types of tumor cell lines, PC3 and LNCAP, to assess its impact on tumor cell proliferation. […] It can decrease the proliferation of tumor cells, aligning with clinical observations.
The bar graphs depict the proliferation rates of CAR T cells, specifically CD4+ and CD8+ subsets, after 96 hours of stimulation with CD19 antigen and varying concentrations of rapamycin. […] CD8: The right graph indicates the percentage of proliferating CD8+ CAR T cells under the same treatment conditions as CD4+.

[2] = taken orally at a dose of 2 mg/day; read-out: maximum blood concentration (Cmax); cited from earlier work

In the case of `CO[C@H]1C[C@@H]2CC[C@@H](C)[C@@](O)(O2)C(=O)C(=O)N2CCCC[C@H]2C(=O)O[C@H]([C@H](C)C[C@@H]2CC[C@@H](O)[C@H](OC)C2)CC(=O)[C@H](C)/C=C(\C)[C@@H](O)[C@@H](OC)C(=O)[C@H](C)C[C@H](C)/C=C/C=C/C=C/1C` [rapamycin, Rapamycin], the “CAR T cell proliferation” value [1] is given as “not inhibited” and the Cmax [2] is given as 16 nM.
